# Measurements as given in PubChem BioAssay (NCI).
# Values joined by “and” are separate entries in the source; they are usually repeats but may differ in a detail not shown here. Equal entries are not always repeated.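 Tested at 5 concentrations; 48 h exposure; 96-well plates; endpoints linearly interpolated, else capped at highest concentration. The concentration for 50% growth inhibition is given as GI50. TGI marks complete inhibition of growth.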
# Columns and labels:
# Experiment in all cases: DTP human tumour cell line panel, 48 h
# M14 melanoma = test system: M14 melanoma
# SR leukemia = test system: SR leukemia
# 786-0 renal = test system: 786-0 renal
# K-562 leukemia = test system: K-562 leukemia
# UACC-257 melanoma = test system: UACC-257 melanoma
# UACC-62 melanoma = test system: UACC-62 melanoma
# HCC-2998 colon = test system: HCC-2998 colon
# MCF7 breast = test system: MCF7 breast
# SW-620 colon = test system: SW-620 colon
# UO-31 renal = test system: UO-31 renal
SMILES,GI50 (M14 melanoma),TGI (M14 melanoma),GI50 (SR leukemia),TGI (SR leukemia),GI50 (786-0 renal),TGI (786-0 renal),GI50 (K-562 leukemia),TGI (K-562 leukemia),GI50 (UACC-257 melanoma),TGI (UACC-257 melanoma),GI50 (UACC-62 melanoma) [µM],TGI (UACC-62 melanoma),GI50 (HCC-2998 colon),TGI (HCC-2998 colon),GI50 (MCF7 breast),TGI (MCF7 breast),GI50 (SW-620 colon),TGI (SW-620 colon),GI50 (UO-31 renal),TGI (UO-31 renal)
CCSC1=NC2C(N(CC)C(=O)N2CC)N1/N=C/C=C/c1ccccc1[N+](=O)[O-] (configuration not stated),0.184 µM,> 100 µM,0.0895 µM,> 48 µM,0.405 µM,> 100 µM,0.0583 µM,> 100 µM,23.8 µM,> 100 µM,0.0604,> 100 µM,0.362 µM,39.6 µM,0.0415 µM,> 100 µM,0.186 µM,> 100 µM,0.664 µM,> 100 µM
COc1cc(C)ccc1C(=O)c1ccc(C)cc1OC,1.32 µM,> 100 µM,0.567 µM,> 100 µM,6.29 µM,> 100 µM,0.619 µM,> 100 µM,54.8 µM,> 100 µM,4.45,> 100 µM,2.87 µM,35.9 µM,0.92 µM,> 100 µM,1.41 µM,> 100 µM,5.74 µM,> 100 µM
Oc1cccc(Nc2nc3ccccc3c3occc23)c1,14.9 µM,28.2 µM,1.38 µM,18.8 µM,9.73 µM,21.4 µM,4.81 µM,55.8 µM,15.9 µM,29.4 µM,11.1,23.1 µM,2.67 µM,11.3 µM,7.4 µM,21 µM,17.1 µM,30.8 µM,10.5 µM,22.2 µM
CC1CC(C)CC(C)C(O)/C(C#N)=C/C=C/CC(C2CCCC2C(=O)O)OC(=O)CC(O)C(C)C1 (configuration not stated),0.026 µM,0.0971 µM and 0.0576 µM,0.0176 µM,0.0736 µM and 0.0813 µM,0.0213 µM,0.171 µM and 0.0536 µM,0.0263 µM and < 0.0121 µM,0.066 µM and 0.256 µM,0.0359 µM,0.17 µM and 0.0491 µM,0.0112,0.0296 µM and 0.015 µM,0.0297 µM,0.102 µM and 0.0726 µM,0.00614 µM,0.0436 µM,0.0834 µM,0.725 µM and 1.34 µM,0.027 µM,0.15 µM and 0.0217 µM
O=C1C=CC(=O)c2c1ccc1c3ccccc3n(Cc3ccc([N+](=O)[O-])cc3)c21,,> 100 µM,,37.3 µM,,> 100 µM,,48.8 µM,,> 100 µM,,> 100 µM,,> 100 µM,,> 100 µM,,> 100 µM,,> 100 µM
O=C(Nc1cccc(Cl)c1)Nn1cnnc1,> 50 µM,> 100 µM,,> 100 µM,> 50 µM,> 100 µM,> 50 µM,> 100 µM,> 50 µM,> 100 µM,> 50,> 100 µM,> 50 µM,> 100 µM,> 50 µM,> 100 µM,> 50 µM,> 100 µM,> 50 µM,> 100 µM
N#C[Se]Cc1cc(-c2ccccc2)n(-c2ccc(S(N)(=O)=O)cc2)n1,0.24 µM,0.659 µM,1.37 µM,6.13 µM,2.63 µM,6.49 µM,1.15 µM,9.88 µM,2.21 µM,6.63 µM,1.66,3.75 µM,2.24 µM,4.94 µM,0.42 µM,9.78 µM,2.18 µM,4.8 µM,1.49 µM,5.96 µM
Nc1nc2ccc(-c3nc4ccc5[nH]ncc5c4c4c3CCC4)cc2s1,0.172 µM,8.86 µM,0.155 µM,22.4 µM,0.343 µM,7.79 µM,0.115 µM,33.2 µM,0.731 µM,5.58 µM,0.149,0.63 µM,1.47 µM,9.11 µM,0.165 µM,7.36 µM,0.186 µM,7.05 µM,0.741 µM,3.58 µM
C[C@@H](NC(C#N)c1ccco1)c1ccccc1 (some centres not stated),,> 100 µM,,> 100 µM,,> 100 µM,,> 100 µM,,> 100 µM,,> 100 µM,,> 100 µM,,> 100 µM,,> 100 µM,,> 100 µM
CO/N=C(\COc1ccc2c(c1)[nH]c1ccccc12)c1ccc(OC)cc1,> 100 µM,> 100 µM,71.6 µM,> 100 µM,7.18 µM,> 100 µM,31 µM,> 100 µM,11.4 µM,47.1 µM,26.6,> 100 µM,> 100 µM,> 100 µM,49.8 µM,> 100 µM,> 100 µM,> 100 µM,> 100 µM,> 100 µM
C/C(=N/O)c1cccc(Nc2cc(-n3nnc4ccccc43)nc3ccccc23)c1,7.48 µM,20.3 µM,15 µM,35.2 µM,4.84 µM,31.3 µM,5.91 µM,82.1 µM,22.7 µM,> 64.4 µM,12.7,34 µM,10.5 µM,23.2 µM,14.4 µM,> 55.6 µM,21.5 µM,57 µM,25 µM,> 100 µM
CCN1C(=O)N(CC)C2C1NN=c1s/c(=C\c3ccc(Cl)cc3Cl)c(=O)n12 (configuration not stated),0.0304 µM,,0.0319 µM,> 24.8 µM,0.0509 µM,> 48.8 µM,0.0309 µM,28 µM,1.05 µM,> 88.4 µM,0.064,> 51.5 µM,0.0367 µM,10.9 µM,0.0322 µM,> 43.4 µM,0.0439 µM,> 100 µM,0.167 µM,60.4 µM
O=C(O)c1nc(NCc2nc3cc(Cl)ccc3o2)n[nH]1,> 100 µM,> 100 µM,> 100 µM,> 100 µM,> 100 µM,> 100 µM,> 100 µM,> 100 µM,> 100 µM,> 100 µM,> 100,> 100 µM,> 100 µM,> 100 µM,> 100 µM,> 100 µM,> 100 µM,> 100 µM,> 100 µM,> 100 µM
O=S(=O)(Nc1ccc(Br)cc1)c1ccc(-c2cnc(C3CC3)o2)cc1,1.41 µM,16.1 µM,0.349 µM,16.5 µM,5.34 µM,20.1 µM,0.41 µM,> 100 µM,10.5 µM,27.5 µM,1.39,13.7 µM,2.38 µM,15.4 µM,0.651 µM,13.9 µM,0.785 µM,12.3 µM,2.41 µM,15.7 µM
CC1=C([Se]CC(OC(=O)CC[Se]c2ccccc2)C(=O)NC(C)(C)C)C(=O)c2ccccc2C1=O (configuration not stated),1.67 µM,3.21 µM,0.938 µM,3.37 µM,1.83 µM,3.23 µM,0.729 µM,3.08 µM,1.57 µM,2.95 µM,1.48,2.83 µM,1.76 µM,3.2 µM,1.69 µM,3.73 µM,1.91 µM,3.88 µM,1.17 µM,2.43 µM
C=C1CCC2C3(C)COC(C)(C)OC3CCC2(C)C1C/C=C1/C(=O)OCC1OC(C)=O (configuration not stated),1.77 µM,3.78 µM,2.37 µM,9.03 µM,2.89 µM,8.05 µM,2.85 µM,23.2 µM,2.02 µM,5.62 µM,4.04,17 µM,15.2 µM,28.8 µM,1.76 µM,7.99 µM,1.27 µM,2.74 µM,6.27 µM,15.5 µM
C=CCc1c(Cl)nc(Cl)nc1Cl,,0.0714 µM,,> 100 µM,,0.368 µM,,0.125 µM,,1.9 µM,,2.07 µM,,3.4 µM,,0.668 µM,,0.583 µM,,0.165 µM
CN1CCN(C(=S)N(C)C(=O)c2ccco2)CC1,,> 100 µM,,> 100 µM,,> 100 µM,,> 100 µM,,> 100 µM,,> 100 µM,,> 100 µM,,> 100 µM,,> 100 µM,,> 100 µM
Cn1ncc(-c2ccc3c(=O)[nH]nc(CN)c3c2)c1-c1c(F)c(Cl)cc(OC2CC2)c1C#N,14.2 µM and 13.4 µM,28.9 µM and 27.5 µM,13.1 µM and 12.3 µM,34.8 µM and 41 µM,13.4 µM and 12.3 µM,29.5 µM and 26 µM,14.5 µM and 14.8 µM,92.1 µM and > 100 µM,13.9 µM and 14.1 µM,28.4 µM and 29.4 µM,,,14.2 µM and 14.5 µM,28 µM and 28.3 µM,10.8 µM and 10.2 µM,23.6 µM and 23.3 µM,13.8 µM and 12.6 µM,29.4 µM and 27.3 µM,12.4 µM and 10.3 µM,24.9 µM and 22.1 µM
N#CC(C#N)=C/C=C(\Cl)c1ccc(Cl)cc1,1.93 µM,7.38 µM,3.31 µM,37.3 µM,4.56 µM,15.7 µM,0.7 µM,,14.8 µM,30.2 µM,6.13,22.8 µM,6.75 µM,19.9 µM,14 µM,> 100 µM,1.93 µM,9.9 µM,14.4 µM,44.9 µM
O=C(c1ccc2ccccc2c1)c1c(C(F)(F)F)n([O-])c2ccc(C(F)(F)F)cc2[n+]1=O,1.54 µM,2.95 µM,0.174 µM,0.478 µM,1.29 µM,2.68 µM,0.608 µM,1.14 µM,1.52 µM,3.12 µM,1.72,3.21 µM,1.69 µM,3.27 µM,0.392 µM,1.56 µM,0.514 µM,1.11 µM,0.434 µM,0.874 µM
CC(CO)Nc1cc(-c2[nH]c3cccnc3c2-c2ccc(F)cc2)ccn1 (configuration not stated),> 25 µM,> 25 µM,17 µM,> 25 µM,18.6 µM,> 25 µM,23.4 µM,> 25 µM,> 25 µM,> 25 µM,11.4,> 25 µM,> 25 µM,> 25 µM,9.36 µM,> 25 µM,20.3 µM,> 25 µM,3.89 µM,> 25 µM
COc1ccc(C2=Nn3c(nnc3-c3cc(Cl)cc(Cl)c3Cl)SC2)cc1,0.349 µM,> 34 µM,0.826 µM,,0.411 µM,,0.44 µM,> 31.6 µM,0.362 µM,> 95.3 µM,0.436,> 100 µM,1.21 µM,5.41 µM,0.326 µM,> 100 µM,0.381 µM,> 100 µM,0.379 µM,29.2 µM
CN(C)CCNC(=O)Cn1ccc(=O)c2cc([N+](=O)[O-])ccc21,,> 100 µM,,> 100 µM,,> 100 µM,,> 100 µM,,> 100 µM,,> 100 µM,,> 100 µM,,> 100 µM,,> 100 µM,,> 100 µM
CNC(=S)Nc1ccc(OC)c2ccccc12,,> 10 µM,,> 10 µM,,> 10 µM,,> 10 µM,,> 10 µM,,> 10 µM,,> 10 µM,,> 10 µM,,> 10 µM,,
Cc1c2cnccc2c(C)c2c1c1cc(C#N)ccc1n2C,0.232 µM,0.654 µM,0.0588 µM,3.06 µM,0.235 µM,1.3 µM,0.247 µM,1.33 µM,0.207 µM,0.788 µM,0.148,0.343 µM,0.293 µM,1.55 µM,0.262 µM,1.12 µM,0.0695 µM,1.17 µM,0.137 µM,0.869 µM
CN(C)c1cc2ccccc2oc1=O,,> 100 µM,,> 100 µM,,> 100 µM,,> 100 µM,,> 100 µM,,> 100 µM,,> 100 µM,,> 100 µM,,> 100 µM,,> 100 µM
Nc1ncn([C@@H]2S[C@H](CO)[C@@H](O)[C@@H]2F)c(=O)n1,0.377 µM,30.1 µM,0.648 µM,> 100 µM,0.337 µM,> 100 µM,1.81 µM,> 100 µM,> 71.4 µM,> 100 µM,5.01,> 100 µM,1.84 µM,> 100 µM,0.279 µM,> 100 µM,1.38 µM,> 100 µM,0.372 µM,> 100 µM
